Test results published in ChEMBL document CHEMBL1201862, “PubChem BioAssay data set” (2004).
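Each compound was tested at five concentrations against cells in 96-well plates for 48 hours. At the GI50, growth is halved.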 Calls of active or inactive are those of the source. Cut-off read from the data, not from the text of the source: active = GI50 up to about 1.1 µM and inactive = higher.

Key:
Assay in all cases: growth of human tumour cells (NCI), 48 h
BT-549 = tested on: BT-549
COLO 205 = tested on: COLO 205
EKVX = tested on: EKVX
HCC 2998 = tested on: HCC 2998
K562 = tested on: K562
KM12 = tested on: KM12
LOX IMVI = tested on: LOX IMVI
MCF7 = tested on: MCF7
MDA-MB-435 = tested on: MDA-MB-435
MOLT-4 = tested on: MOLT-4
Malme-3M = tested on: Malme-3M
NCI-H23 = tested on: NCI-H23
NCI/ADR-RES = tested on: NCI/ADR-RES
OVCAR-4 = tested on: OVCAR-4
OVCAR-5 = tested on: OVCAR-5
PC-3 = tested on: PC-3
RPMI-8226 = tested on: RPMI-8226
RXF 393 = tested on: RXF 393
TK-10 = tested on: TK-10
UACC-257 = tested on: UACC-257

Measured: GI50

CN(C)CCOc1ccc(-c2c(Oc3ccccc3)c(=O)oc3ccccc23)cc1
inactive: BT-549 13.6 µM | COLO 205 11 µM | EKVX 13.9 µM | HCC 2998 6.62 µM | K562 2.39 µM | KM12 21.4 µM | LOX IMVI 13.1 µM | MCF7 4.66 µM | MDA-MB-435 4.89 µM | MOLT-4 4.13 µM | Malme-3M 12.2 µM | NCI-H23 14.1 µM | NCI/ADR-RES 11.2 µM | OVCAR-4 27.2 µM | OVCAR-5 15 µM | PC-3 9.93 µM | RPMI-8226 14.1 µM | RXF 393 3.08 µM | TK-10 13.6 µM | UACC-257 6.67 µM

CCCCCCCCCC(=O)N[C@@H](c1ccco1)[C@@H](O)C(=O)O[C@H]1C[C@@]2(O)[C@@H](OC(=O)c3ccccc3)[C@@H]3[C@]4(OC(C)=O)CO[C@@H]4C[C@H](O)[C@@]3(C)C(=O)[C@H](OC(C)=O)C(=C1C)C2(C)C
inactive: EKVX 10 µM | NCI/ADR-RES 4.57 µM | OVCAR-4 1.34 µM
active: BT-549 0.0419 µM | COLO 205 < 0.005 µM | HCC 2998 0.0703 µM | K562 0.0187 µM | KM12 0.00879 µM | LOX IMVI 0.0111 µM | MCF7 0.00695 µM | MDA-MB-435 < 0.005 µM | MOLT-4 0.0124 µM | Malme-3M 0.0269 µM | NCI-H23 0.0385 µM | OVCAR-5 0.0196 µM | PC-3 0.64 µM | RPMI-8226 < 0.005 µM | RXF 393 0.043 µM | TK-10 0.468 µM | UACC-257 0.0374 µM
